Experimental data: PubChem BioAssay AID1963983 (Molecular Pharmacology Branch, DTP, NCI, 2024)

Tested on: 186277-243-T-J2-PDC multi-cell spheroid viability
Assay: Anticancer human tumor 186277-243-T-J2-PDC patient-derived colon adenocarcinoma cell line growth inhibition [PI3K]
Settings: for viability, T/C: stronger effect = lower value
Excerpt: Combinatorial screen of targeted agents with the PI3K inhibitors inavolisib, alpelisib, duvelisib, and copanlisib in multi-cell type tumor spheroids
A high-throughput screen of multi-cell type tumor spheroids was designed to identify active combinations of targeted small molecules and PI3K pathway inhibitors. Complex spheroids include a stromal component modeled by human endothelial cells (HUVEC) and fibroblasts modeled by human mesenchymal stem cells (MSCs). The concentration ranges selected for each drug and investigational agent were based upon clinically achievable concentrations if the clinical Cmax of the agent was known.
Compounds. The drugs and investigational agents: inavolisib (NSC800729), alpelisib (NSC765974), duvelisib (NSC772469), copanlisib (NSC816437), ipatasertib (NSC767898), afuresertib (NSC778305), talazoparib (NSC767125), sapanisertib (NSC764658), selumetinib (NSC741078), tovorafenib (DAY101, NSC766906), vemurafenib (NSC761431), ravoxertinib (NSC781343), sotorasib (NSC818433), MRTX1133 (NSC 836407), abemaciclib (NSC 768073), palbociclib (NSC758247), venetoclax (NSC 766270), SY5609 (NSC837396), enzalutamide (NSC755605), and darolutamide (NSC825331), were obtained from the National Cancer Institute (NCI) Developmental Therapeutics Program Chemical Repository. The FDA-approved anticancer drug set is available from the NCI Developmental Therapeutics Program. […] The stock solutions were prepared in dimethyl sulfoxide (DMSO, Sigma-Aldrich, St. Louis, MO, cat. D2650) at 800-fold the tested concentration and stored at -70 degrees C prior to their use. All drugs and investigational agents were tested over a range starting from a high concentration at or near the clinical Cmax and decreasing in half-log increments. If the clinical Cmax for an agent had not been determined, the highest concentration tested was 10 microM.
Cell Culture. All cells were maintained in an incubator at 37 degrees C and 5% CO2 with 95% humidity. The PDC lines were cultured according to standard operating procedures established by the NCI PDMR (https://pdmr.cancer.gov/sops/default.htm). All PDCs were thawed and cultured in Matrigel-coated flasks prepared with a working solution of 1X Ham's F-12 nutrient mix, without supplementation (Invitrogen, Waltham, MA, cat. 11765054), 100 U/mL penicillin-streptomycin (Invitrogen, cat. 15140122), and 2.5% Matrigel (Corning Inc., Corning, NY, cat. 354248) for the first three passages. The 354836-022-R-J1-PDC, 475296-252-R-J1-PDC, and 997726-040-R-J2-PDC lines were cultured in 6A media, which includes advanced DMEM/F-12 (Thermo Fisher Scientific, cat. 12634028), 10 mM HEPES (Thermo Fisher Scientific, cat. 15630080), 1X GlutaMAX supplement (Thermo Fisher Scientific, cat. 35050061), 0.1 mg/mL primocin (InvivoGen, San Diego, CA, cat. ant-pm-2), 10% defined fetal bovine serum, heat inactivated (HyClone Laboratories Inc., Logan, UT, cat. SH30070.03HI), 50% L-WRN conditioned media (ATCC, cat. CRL-3276), 1.25 mM N-Acetyl-L-cysteine (Sigma-Aldrich, cat. A9165), 10 mM nicotinamide (Sigma-Aldrich, cat. N0636), 1X B-27 supplement (Thermo Fisher Scientific, cat. 17504044), 1X N-2 supplement (Thermo Fisher Scientific, cat. 17502048), and 10 microM Y-27632 dihydrochloride (Tocris Bioscience, Bristol, United Kingdom, cat. 1254). The 624824-186-R-J2-PDC line was cultured in 6C/Colon 1B media, which includes all 6A media components plus 50 ng/mL human EGF recombinant protein (Thermo Fisher Scientific, cat. PHG0311). […]

[1] = curve of first compound, second compound 0.0316 µM
[2] = curve of first compound, second compound 0.1 µM
[3] = curve of first compound, second compound 0.316 µM
[4] = curve of first compound, second compound 1 µM
[5] = second compound 0.0316 µM, first compound 0.00316 µM
[6] = second compound 0.0316 µM, first compound 0.01 µM
[7] = second compound 0.0316 µM, first compound 0.0316 µM
[8] = second compound 0.0316 µM, first compound 0.1 µM
[9] = second compound 0.1 µM, first compound 0.00316 µM
[10] = second compound 0.1 µM, first compound 0.01 µM
[11] = second compound 0.1 µM, first compound 0.0316 µM
[12] = second compound 0.1 µM, first compound 0.1 µM
[13] = second compound 0.316 µM, first compound 0.00316 µM
[14] = second compound 0.316 µM, first compound 0.01 µM
[15] = second compound 0.316 µM, first compound 0.0316 µM
[16] = second compound 0.316 µM, first compound 0.1 µM
[17] = second compound 1 µM, first compound 0.00316 µM
[18] = second compound 1 µM, first compound 0.01 µM
[19] = second compound 1 µM, first compound 0.0316 µM
[20] = second compound 1 µM, first compound 0.1 µM
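Note: spheroids exposed to compounds for seven days before viability reading.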
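Throughout, for viability, T/C: 100% = DMSO vehicle control viability.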

`C[C@@H](NC(=O)c1ncnc(N)c1Cl)c1ncc(C(=O)Nc2cc(C(F)(F)F)c(Cl)cn2)s1` was tested, and the viability, T/C (compound 0.0316 µM) was 95.7% [middle of 4 runs], the viability, T/C (compound 0.1 µM) was 92.9% [middle of 4 runs] and the viability, T/C (compound 0.316 µM) was 92.3% [middle of 4 runs]. For the same molecule, the viability, T/C (compound 1 µM) was 99.5% [middle of 4 runs], the viability, T/C (compound 3.16 µM) was 105% [middle of 4 runs] and the viability, T/C (compound 10 µM) was 79.9% [middle of 4 runs]. It also gave an IC50 (curve of compound) greater than 10000 nM.

With `CCN1CCN(Cc2ccc(Nc3ncc(F)c(-c4cc(F)c5nc(C)n(C(C)C)c5c4)n3)nc2)CC1` + COc1c(OCCCN2CCOCC2)ccc2c3n(c(=NC(=O)c4cnc(N)nc4)nc12)CCN3 the IC50 (curve of first compound, second compound 0.00316 µM) was greater than 1000 nM, the IC50 (curve of first compound, second compound 0.01 µM) was greater than 1000 nM and the IC50 [1] was 234 nM. For the same molecule, the IC50 [2] was less than 3.16 nM, the IC50 [3] was less than 3.16 nM and the IC50 [4] was less than 3.16 nM. It also gave a viability, T/C (second compound 0.00316 µM, first compound 0.00316 µM) of 95.3%, a viability, T/C (second compound 0.00316 µM, first compound 0.01 µM) of 111% and a viability, T/C (second compound 0.00316 µM, first compound 0.0316 µM) of 94.3%. For the same molecule, the viability, T/C (second compound 0.00316 µM, first compound 0.1 µM) was 134%, the viability, T/C (second compound 0.00316 µM, first compound 0.316 µM) was 151% and the viability, T/C (second compound 0.00316 µM, first compound 1 µM) was 108%. It also gave a viability, T/C (second compound 0.01 µM, first compound 0.00316 µM) of 101%, a viability, T/C (second compound 0.01 µM, first compound 0.01 µM) of 107% and a viability, T/C (second compound 0.01 µM, first compound 0.0316 µM) of 113%. The viability, T/C (second compound 0.01 µM, first compound 0.1 µM) was 112%, the viability, T/C (second compound 0.01 µM, first compound 0.316 µM) was 123% and the viability, T/C (second compound 0.01 µM, first compound 1 µM) was 69.4%. The viability, T/C [5] was 68.4%, the viability, T/C [6] was 59.7% and the viability, T/C [7] was 57.8%. The viability, T/C [8] was 52.4%, the viability, T/C (second compound 0.0316 µM, first compound 0.316 µM) was 54.8% and the viability, T/C (second compound 0.0316 µM, first compound 1 µM) was 33.2%. The viability, T/C [9] was 19.9%, the viability, T/C [10] was 17.7% and the viability, T/C [11] was 16%. The viability, T/C [12] was 13%, the viability, T/C (second compound 0.1 µM, first compound 0.316 µM) was 14.5% and the viability, T/C (second compound 0.1 µM, first compound 1 µM) was 12.8%. The viability, T/C [13] was 6.67%, the viability, T/C [14] was 7.13% and the viability, T/C [15] was 4.73%. For the same molecule, the viability, T/C [16] was 3.28%, the viability, T/C (second compound 0.316 µM, first compound 0.316 µM) was 6.05% and the viability, T/C (second compound 0.316 µM, first compound 1 µM) was 7.03%. For the same molecule, the viability, T/C [17] was 2.68%, the viability, T/C [18] was 3% and the viability, T/C [19] was 2.82%. The viability, T/C [20] was 2.7%, the viability, T/C (second compound 1 µM, first compound 0.316 µM) was 7% and the viability, T/C (second compound 1 µM, first compound 1 µM) was 4.26%.

`CC(Nc1ncnc2nc[nH]c12)c1cc2cccc(Cl)c2c(=O)n1-c1ccccc1` (centres undefined) was tested, and the viability, T/C (compound 0.0316 µM) was 97.5% [middle of 8 runs], the viability, T/C (compound 0.1 µM) was 102% [middle of 8 runs] and the viability, T/C (compound 0.316 µM) was 101% [middle of 8 runs]. For the same molecule, the viability, T/C (compound 1 µM) was 101% [middle of 8 runs], the viability, T/C (compound 3.16 µM) was 98.6% [middle of 8 runs] and the viability, T/C (compound 10 µM) was 99.5% [middle of 8 runs]. It also gave an IC50 (compound alone, run of 05/09/2023) greater than 10000 nM.

In the case of `Cc1nc(NC(=O)N2CCCC2C(N)=O)sc1-c1ccnc(C(C)(C)C(F)(F)F)c1` (centres undefined), the viability, T/C (compound 0.1 µM) is reported as 104% [middle of 8 runs], the viability, T/C (compound 0.316 µM) is reported as 110% [middle of 8 runs] and the viability, T/C (compound 1 µM) is reported as 102% [middle of 8 runs]. For the same molecule, the viability, T/C (compound 3.16 µM) was 54.1% [middle of 8 runs], the viability, T/C (compound 10 µM) was 16.6% [middle of 8 runs] and the IC50 (compound alone, run of 05/08/2023) was 3.62 µM [middle of 8 runs].

Molecule `Cn1ncnc1[C@H]1c2n[nH]c(=O)c3cc(F)cc(c23)N[C@@H]1c1ccc(F)cc1` + CC(Nc1ncnc2nc[nH]c12)c1cc2cccc(Cl)c2c(=O)n1-c1ccccc1 has an IC50 [1] greater than 100 nM, an IC50 [2] greater than 100 nM and an IC50 [3] greater than 100 nM. The IC50 [4] was greater than 100 nM, the IC50 (curve of first compound, second compound 3.16 µM) was greater than 100 nM and the IC50 (curve of first compound, second compound 10 µM) was greater than 100 nM. For the same molecule, the viability, T/C (second compound 0.0316 µM, first compound 0.000316 µM) was 88.3%, the viability, T/C (second compound 0.0316 µM, first compound 0.001 µM) was 94.7% and the viability, T/C [5] was 86.8%. It also gave a viability, T/C [6] of 100%, a viability, T/C [7] of 104% and a viability, T/C [8] of 88.9%. For the same molecule, the viability, T/C (second compound 0.1 µM, first compound 0.000316 µM) was 93.2%, the viability, T/C (second compound 0.1 µM, first compound 0.001 µM) was 111% and the viability, T/C [9] was 94.9%. For the same molecule, the viability, T/C [10] was 103%, the viability, T/C [11] was 99.9% and the viability, T/C [12] was 99.3%. For the same molecule, the viability, T/C (second compound 0.316 µM, first compound 0.000316 µM) was 93.5%, the viability, T/C (second compound 0.316 µM, first compound 0.001 µM) was 107% and the viability, T/C [13] was 96.1%. For the same molecule, the viability, T/C [14] was 92.5%, the viability, T/C [15] was 91.3% and the viability, T/C [16] was 85%. The viability, T/C (second compound 1 µM, first compound 0.000316 µM) was 89.3%, the viability, T/C (second compound 1 µM, first compound 0.001 µM) was 95.5% and the viability, T/C [17] was 114%. For the same molecule, the viability, T/C [18] was 97.4%, the viability, T/C [19] was 87% and the viability, T/C [20] was 84.4%. It also gave a viability, T/C (second compound 3.16 µM, first compound 0.000316 µM) of 108%, a viability, T/C (second compound 3.16 µM, first compound 0.001 µM) of 107% and a viability, T/C (second compound 3.16 µM, first compound 0.00316 µM) of 102%. It also gave a viability, T/C (second compound 3.16 µM, first compound 0.01 µM) of 84.5%, a viability, T/C (second compound 3.16 µM, first compound 0.0316 µM) of 101% and a viability, T/C (second compound 3.16 µM, first compound 0.1 µM) of 99.1%. The viability, T/C (second compound 10 µM, first compound 0.000316 µM) was 99.6%, the viability, T/C (second compound 10 µM, first compound 0.001 µM) was 90.6% and the viability, T/C (second compound 10 µM, first compound 0.00316 µM) was 84.4%. It also gave a viability, T/C (second compound 10 µM, first compound 0.01 µM) of 86%, a viability, T/C (second compound 10 µM, first compound 0.0316 µM) of 88.6% and a viability, T/C (second compound 10 µM, first compound 0.1 µM) of 85%.
